# Reference: patent US11464854B2, “Methods and compositions relating to adjuvants” (Children's Medical Center Corporation, priority 2017, dated 2022)
# Tests used:
# [1] = test system: human neonatal and adult blood; assay: Human whole blood assay, cytokine induction (CRX adjuvants); assay type: cell-based
# Experimental: Human blood was anti-coagulated with 20 units/ml pyrogen-free sodium heparin (American Pharmaceutical Partners, Inc.; Schaumberg, Ill.). All blood products were kept at room temperature and processed within 4 hours from collection. Human whole blood assays were completed as previously described. Briefly, neonatal cord blood or adult whole blood (WB) was mixed 1:1 with sterile pre-warmed (37° C.) RPMI 1640 medium (Invitrogen; Carlsbad, Calif.) and 180-225 μl of the 1:1 suspension was added to each well of a 96 well U-bottom plate (Becton Dickinson; Franklin Lakes, N.J., USA) containing 20-25 μl freshly prepared specific TLRAs at 10× the final concentration. Suspensions containing 200-250 μl/well were gently mixed by pipetting and incubated for 6 hours at 37° C. in a humidified incubator at 5%, CO2. After culture, plates were centrifuged at 500×g and ˜100-150 μl of supernatant was carefully removed by pipetting without disturbing the cell pellet. Supernatants derived from human leukocyte stimulations were assayed by ELISA for TNF and IFNγ (BD Biosciences; San Jose, Calif., USA).
# Additionally, for both newborn and adult readouts, cytokine and chemokine expression profiles in cell culture supernatants and peripheral blood plasma were measured using customized Milliplex™ human cytokine/chemokine magnetic bead panels (Millipore; Billerica, Mass., USA). Assays were analyzed on the Luminex® 100/200™ System employing xPOTENT® software (Luminex; Austin, Tex.) and Millipore Milliplex Analyst™ (version 3.5.5.0). The minimum threshold for each analyte was set at the minimum detectable concentration for a given assay, defined as three standard deviations above the mean background. CL075 (TLR8/7) was purchased from InvivoGen (San Diego, Calif.) and used at the concentrations noted in the figure legends.
# [2] = test system: FHA (B. pertussis filamentous hemagglutinin); assay: Adult mouse immunization with Infanrix (DTaP), anti-FHA serum antibody titers; assay type: in vivo, Balb/c mice; details: 14 days post primary and secondary
# Experimental: For immunization experiments, both neonate and adult mice were immunized intramuscularly (i.m.) in the posterior thigh with 50 μl of total vaccine dose. For adult mouse studies, Balb/c mice (6-8 weeks of age) were immunized with Infanrix (GSK, 1/100th of the human dose)±CRX649 or CRX-727 at 0.1 μg, 1 μg or 10 μg per mouse in different formulations (aqueous choline salt, liposome or alum pre-adsorbed). Serum was harvested 14 days following prime (14dp1) or boost (14dp2) and anti-FHA serum antibody IgG1 and IgG2a titers were measured by ELISA, as described below. For neonatal mouse studies, 7 day old Balb/c and C57BL/6 mice were immunized with a prime-boost schedule (two injections one week apart, for newborn mice at DOL 7 and 14). Serum was harvested 14 days following boost (14dp2) (day of life 28) and anti-FHA serum total IgG titers, IgG1 and IgG2a/IgG2c were measured by ELISA.
# For anti-filamentous hemagglutinin (FHA) ELISAs, Nunc MaxiSorp™ flat bottom 96-well plates (ThermoFisher Scientific) were coated with 5 μg/ml FHA (B. pertussis Filamentous Hemagglutinin, Strain: NCTC 10739, The Native Antigen Company/Cedarlane, Burlington, N.C.) in carbonate buffer pH 9.6, incubated overnight at 4° C., washed 3× with wash buffer (KPL 10× Phosphate Buffered Saline with Tween 20 (Fisher Scientific)) and blocked with Superblock™ (ScyTek) for 1 h at room temperature (RT). […]
# [3] = 1 μM and 10 μM, newborn over adult whole blood
compound,measurement,setting,value
CCCCc1nc2c(N)nc3ccccc3c2n1CCO [CRX-649],"CXCL8, CXCL10, CCL2 and GM-CSF production (multiplex)",[1]; [3],greater CRX-649 induced production in newborn blood
same,"production of IL-1β, L-6, IL-10, and IL-12p40 (multiplex)",[1]; [3],concentration-dependent production
same,IFNγ production in newborn blood relative to similarly treated adult blood,[1]; 10 μM,twice
same,TNF production in newborn cord blood versus adult,[1]; 6 hours,more than adult-like age-specific potency and effectiveness
same,IFNγ production,"[1]; newborn blood, 10 μM, 6 hours",~1200 pg/mL
same,induction of IFNγ,"[1]; newborn cord blood, 6 hours","greatest potency, effectiveness and IFNγ polarization"
same,anti-FHA IgG1 or IgG2a antibody titers,[2],not able to enhance
